Experiments:
[1] = The drug is tested on Z-029 corresponding to rat gut metagenome with ENA study accession number: PRJEB37062 and ENA sample accession number: ERS12561828 for biotransformation under anaerobic condition. The drug concentrations were measured over 9 timepoints collected between 0 and 24 hours of incubation by liquid-chromatography-coupled mass spectrometry (LC–MS); settings: 2 µM
[2] = The drug is tested on WLS-082 corresponding to human gut metagenome with ENA study accession number: PRJEB37062 and ENA sample accession number: ERS12561751 for biotransformation under anaerobic condition. The drug concentrations were measured over 9 timepoints collected between 0 and 24 hours of incubation by liquid-chromatography-coupled mass spectrometry (LC–MS); settings: 2 µM
[3] = The drug is tested on Z-012 corresponding to metagenome with ENA study accession number: PRJEB37062 and ENA sample accession number: ERS12561812 for biotransformation under anaerobic condition. The drug concentrations were measured over 9 timepoints collected between 0 and 24 hours of incubation by liquid-chromatography-coupled mass spectrometry (LC–MS); settings: 2 µM
[4] = human gut metagenome, 24 h, 2 µM
[5] = The drug is tested on Z-028 corresponding to mouse gut metagenome with ENA study accession number: PRJEB37062 and ENA sample accession number: ERS12561827 for biotransformation under anaerobic condition. The drug concentrations were measured over 9 timepoints collected between 0 and 24 hours of incubation by liquid-chromatography-coupled mass spectrometry (LC–MS); settings: 2 µM
[6] = The drug is tested on WLS-052 corresponding to human gut metagenome with ENA study accession number: PRJEB37062 and ENA sample accession number: ERS12561747 for biotransformation under anaerobic condition. The drug concentrations were measured over 9 timepoints collected between 0 and 24 hours of incubation by liquid-chromatography-coupled mass spectrometry (LC–MS); settings: 2 µM
[7] = The drug is tested on Z-011 corresponding to mouse gut metagenome with ENA study accession number: PRJEB37062 and ENA sample accession number: ERS12561811 for biotransformation under anaerobic condition. The drug concentrations were measured over 9 timepoints collected between 0 and 24 hours of incubation by liquid-chromatography-coupled mass spectrometry (LC–MS); settings: 2 µM
[8] = The drug is tested on Z-018 corresponding to pig gut metagenome with ENA study accession number: PRJEB37062 and ENA sample accession number: ERS12561817 for biotransformation under anaerobic condition. The drug concentrations were measured over 9 timepoints collected between 0 and 24 hours of incubation by liquid-chromatography-coupled mass spectrometry (LC–MS); settings: 2 µM
[9] = human gut metagenome, 24 h, 2 µM; remark: listed apart in the source
[10] = The drug is tested on WLS-010 corresponding to human gut metagenome with ENA study accession number: PRJEB37062 and ENA sample accession number: ERS12561743 for biotransformation under anaerobic condition. The drug concentrations were measured over 9 timepoints collected between 0 and 24 hours of incubation by liquid-chromatography-coupled mass spectrometry (LC–MS); settings: 2 µM
[11] = The drug is tested on Z-020 corresponding to rabbit gut metagenome with ENA study accession number: PRJEB37062 and ENA sample accession number: ERS12561819 for biotransformation under anaerobic condition. The drug concentrations were measured over 9 timepoints collected between 0 and 24 hours of incubation by liquid-chromatography-coupled mass spectrometry (LC–MS); settings: 2 µM
[12] = human gut metagenome, 24 h, 2 µM; remark: listed apart in the source
[13] = human gut metagenome, 24 h, 2 µM; remark: listed apart in the source
[14] = human gut metagenome, 24 h, 2 µM; remark: listed apart in the source
[15] = The drug is tested on Z-024 corresponding to pig gut metagenome with ENA study accession number: PRJEB37062 and ENA sample accession number: ERS12561823 for biotransformation under anaerobic condition. The drug concentrations were measured over 9 timepoints collected between 0 and 24 hours of incubation by liquid-chromatography-coupled mass spectrometry (LC–MS); settings: 2 µM
[16] = human gut metagenome, 24 h, 2 µM; remark: listed apart in the source
[17] = The drug is tested on WLS-069 corresponding to human gut metagenome with ENA study accession number: PRJEB37062 and ENA sample accession number: ERS12561748 for biotransformation under anaerobic condition. The drug concentrations were measured over 9 timepoints collected between 0 and 24 hours of incubation by liquid-chromatography-coupled mass spectrometry (LC–MS); settings: 2 µM
[18] = human gut metagenome, 24 h, 2 µM; remark: listed apart in the source
[19] = The drug is tested on Z-001 corresponding to mouse gut metagenome with ENA study accession number: PRJEB37062 and ENA sample accession number: ERS12561801 for biotransformation under anaerobic condition. The drug concentrations were measured over 9 timepoints collected between 0 and 24 hours of incubation by liquid-chromatography-coupled mass spectrometry (LC–MS); settings: 2 µM
[20] = The drug is tested on WLS-220 corresponding to human gut metagenome with ENA study accession number: PRJEB37062 and ENA sample accession number: ERS12561769 for biotransformation under anaerobic condition. The drug concentrations were measured over 9 timepoints collected between 0 and 24 hours of incubation by liquid-chromatography-coupled mass spectrometry (LC–MS); settings: 2 µM

Measured: Bacterial Biotransformation
Note: call rule not given here.

CC(Oc1c(Cl)cccc1Cl)C1=NCCN1 (stereo not given) [LOFEXIDINE]
Compound NOT metabolized: [1] | [2] | [3] | [5] | [6] | [7] | [8] | [10] | [11] | [13] | [15] | [16] | [17] | [18] | [19] | [20]
Compound metabolized: [4] | [9] | [12] | [14]

CN(C)C(=O)C(CCN1CCC(O)(c2ccc(Cl)cc2)CC1)(c1ccccc1)c1ccccc1 [LOPERAMIDE]
Compound NOT metabolized: [1] | [7]
Compound metabolized: [2] | [3] | [4] | [5] | [6] | [8] | [9] | [10] | [11] | [12] | [13] | [14] | [15] | [16] | [17] | [18] | [19] | [20]

CCCCc1nc(Cl)c(CO)n1Cc1ccc(-c2ccccc2-c2nn[nH]n2)cc1 [LOSARTAN]
Compound metabolized: [1] | [2] | [4] | [9] | [10] | [12] | [13] | [14] | [17] | [18] | [20]
Compound NOT metabolized: [3] | [5] | [6] | [7] | [8] | [11] | [15] | [16] | [19]

COC(=O)Nc1nc2ccc(C(=O)c3ccccc3)cc2[nH]1 [MEBENDAZOLE]
Compound metabolized: [1] | [2] | [3] | [4] | [6] | [7] | [8] | [9] | [10] | [11] | [12] | [13] | [14] | [15] | [16] | [17] | [18] | [19] | [20]
Compound NOT metabolized: [5]

COc1ccccc1OCC(O)COC(N)=O (stereo not given) [METHOCARBAMOL]
Compound NOT metabolized: [1] | [2] | [3] | [4] | [5] | [6] | [7] | [8] | [9] | [10] | [11] | [12] | [13] | [14] | [15] | [16] | [17] | [18] | [19] | [20]

Reference: ChEMBL document CHEMBL5724914, “Linking interpersonal differences in gut microbiota composition and drug biotransformation activity” (2024)
